Reference: publication PMC6934184, “Selective DNA-PKcs inhibition extends the therapeutic index of localized radiotherapy and chemotherapy” (The Journal of Clinical Investigation, 2019)

Molecular target: T1, CDK9/cyclin T1 (Homo sapiens, UniProt P50750)
T1 construct: purchased Thermo Fisher Scientific (Life Technologies) SelectScreen
Assay: SelectScreen Adapta
Assay type: biochemical
Procedure, shortened: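 SelectScreen broad panel; activity (Z'LYTE, Adapta) plus binding formats. ATP: Km app for CSF1R Z'LYTE; 10 for CAMK1 Adapta. Readout = % per kinase.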

T1 sequence (P50750 whole entry): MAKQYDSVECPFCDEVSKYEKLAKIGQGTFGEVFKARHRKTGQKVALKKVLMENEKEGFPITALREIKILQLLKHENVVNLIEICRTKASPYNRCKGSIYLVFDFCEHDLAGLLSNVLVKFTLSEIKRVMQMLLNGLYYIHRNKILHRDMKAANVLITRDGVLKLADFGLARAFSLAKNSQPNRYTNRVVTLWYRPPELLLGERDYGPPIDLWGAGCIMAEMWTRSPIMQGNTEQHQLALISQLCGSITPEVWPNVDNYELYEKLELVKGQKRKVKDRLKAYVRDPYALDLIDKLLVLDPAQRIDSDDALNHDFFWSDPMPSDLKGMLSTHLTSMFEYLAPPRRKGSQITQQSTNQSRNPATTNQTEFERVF
T1 sequence (O60563 whole entry partner): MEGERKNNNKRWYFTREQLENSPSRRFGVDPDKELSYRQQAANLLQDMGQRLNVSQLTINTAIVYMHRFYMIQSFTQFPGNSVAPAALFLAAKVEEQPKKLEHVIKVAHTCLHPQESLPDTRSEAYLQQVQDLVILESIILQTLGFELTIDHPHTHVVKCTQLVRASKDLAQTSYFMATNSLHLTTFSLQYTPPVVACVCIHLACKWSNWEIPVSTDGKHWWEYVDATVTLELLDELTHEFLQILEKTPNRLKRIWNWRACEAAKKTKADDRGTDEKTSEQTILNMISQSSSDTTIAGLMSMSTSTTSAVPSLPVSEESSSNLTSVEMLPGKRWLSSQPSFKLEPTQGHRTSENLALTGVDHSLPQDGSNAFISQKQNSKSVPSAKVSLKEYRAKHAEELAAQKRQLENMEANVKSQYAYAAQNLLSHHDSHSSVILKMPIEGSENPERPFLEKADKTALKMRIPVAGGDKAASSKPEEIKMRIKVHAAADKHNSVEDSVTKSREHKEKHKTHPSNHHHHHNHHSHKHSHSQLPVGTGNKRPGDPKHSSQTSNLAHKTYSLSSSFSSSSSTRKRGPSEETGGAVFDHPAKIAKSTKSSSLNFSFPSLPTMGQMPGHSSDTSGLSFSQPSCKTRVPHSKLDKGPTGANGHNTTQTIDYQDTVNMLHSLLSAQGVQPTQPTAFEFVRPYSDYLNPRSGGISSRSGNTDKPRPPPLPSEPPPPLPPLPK

In the case of `CN(C(=O)CN1CCOCC1)c1ccc2sc3c(-c4cccc5c(=O)cc(N6CC7CCC(C6)O7)oc45)cccc3c2c1` [NU5455], the inhibition at 1 µM is reported as -1.4%.
